Data reported in the NIST ThermoML archive (doi:10.1021/je060485s).
± gives the expanded uncertainty stated by the source.

Test: xn = mol fraction of the nth substance listed
Conditions: for surface tension liquid-gas: Pendant drop shape; for mass density: 101 kPa, Liquid

CCCOC(C)=O [propyl ethanoate] + Cc1ccc(C)cc1
Conditions | mass density [kg/m3] | surface tension liquid-gas [mN/m]
298.15 K, x1 = 0.1 | 859.6 ± 0.36 | 27.56 ± 0.3
298.15 K, x1 = 0.1995 | 862.22 ± 0.36 | 27.04 ± 0.29
298.15 K, x1 = 0.2981 | 864.8 ± 0.35 | 26.54 ± 0.29
298.15 K, x1 = 0.3986 | 867.38 ± 0.35 | 26.05 ± 0.28
298.15 K, x1 = 0.4993 | 869.95 ± 0.35 | 25.61 ± 0.28
298.15 K, x1 = 0.6002 | 872.51 ± 0.35 | 25.23 ± 0.28
298.15 K, x1 = 0.6991 | 875 ± 0.35 | 24.89 ± 0.28
298.15 K, x1 = 0.7993 | 877.52 ± 0.35 | 24.56 ± 0.27
298.15 K, x1 = 0.8999 | 880.05 ± 0.35 | 24.23 ± 0.27
298.15 K, x1 = 1 | 882.54 ± 0.35 | 23.91 ± 0.27
303.15 K, x1 = 0.0994 | 855.13 ± 0.37 | 26.98 ± 0.29
303.15 K, x1 = 0.1992 | 857.64 ± 0.36 | 26.48 ± 0.29
303.15 K, x1 = 0.2992 | 860.13 ± 0.36 | 25.99 ± 0.28
303.15 K, x1 = 0.3991 | 862.58 ± 0.36 | 25.52 ± 0.28
303.15 K, x1 = 0.5009 | 865.05 ± 0.36 | 25.1 ± 0.28
303.15 K, x1 = 0.5998 | 867.44 ± 0.36 | 24.76 ± 0.28
303.15 K, x1 = 0.6999 | 869.84 ± 0.36 | 24.43 ± 0.27
303.15 K, x1 = 0.8009 | 872.26 ± 0.36 | 24.1 ± 0.27
303.15 K, x1 = 0.8997 | 874.63 ± 0.36 | 23.78 ± 0.27
303.15 K, x1 = 1 | 876.99 ± 0.35 | 23.46 ± 0.27
308.15 K, x1 = 0.1001 | 850.7 ± 0.37 | 26.61 ± 0.29
308.15 K, x1 = 0.1999 | 853.09 ± 0.37 | 26.09 ± 0.28
308.15 K, x1 = 0.2992 | 855.43 ± 0.37 | 25.57 ± 0.28
308.15 K, x1 = 0.4001 | 857.77 ± 0.37 | 25.06 ± 0.28
308.15 K, x1 = 0.4996 | 860.06 ± 0.37 | 24.62 ± 0.27
308.15 K, x1 = 0.6 | 862.35 ± 0.37 | 24.23 ± 0.27
308.15 K, x1 = 0.6996 | 864.61 ± 0.36 | 23.87 ± 0.27
308.15 K, x1 = 0.8003 | 866.88 ± 0.36 | 23.51 ± 0.27
308.15 K, x1 = 0.9002 | 869.14 ± 0.36 | 23.15 ± 0.26
308.15 K, x1 = 1 | 871.35 ± 0.36 | 22.79 ± 0.26

CCCOC(C)=O [propyl ethanoate] + Cc1cccc(C)c1
x1 = 1
Conditions | mass density [kg/m3] | surface tension liquid-gas [mN/m]
298.15 K | 882.54 ± 0.35 | 23.91 ± 0.27
303.15 K | 876.99 ± 0.35 | 23.46 ± 0.27
308.15 K | 871.35 ± 0.36 | 22.79 ± 0.26

CCCOC(C)=O [propyl ethanoate] + Cc1ccccc1C
Conditions | mass density [kg/m3] | surface tension liquid-gas [mN/m]
298.15 K, x1 = 0.0998 | 876.04 ± 0.34 | 28.94 ± 0.31
298.15 K, x1 = 0.1995 | 876.96 ± 0.34 | 28.14 ± 0.3
298.15 K, x1 = 0.2996 | 877.83 ± 0.34 | 27.47 ± 0.3
298.15 K, x1 = 0.4002 | 878.67 ± 0.34 | 26.85 ± 0.29
298.15 K, x1 = 0.5001 | 879.45 ± 0.34 | 26.27 ± 0.29
298.15 K, x1 = 0.6004 | 880.18 ± 0.34 | 25.71 ± 0.28
298.15 K, x1 = 0.7002 | 880.85 ± 0.34 | 25.18 ± 0.28
298.15 K, x1 = 0.7999 | 881.46 ± 0.35 | 24.69 ± 0.28
298.15 K, x1 = 0.9 | 882.03 ± 0.35 | 24.25 ± 0.27
298.15 K, x1 = 1 | 882.54 ± 0.35 | 23.91 ± 0.27
303.15 K, x1 = 0.0999 | – | 28.41 ± 0.3
303.15 K, x1 = 0.1 | 871.68 ± 0.35 | –
303.15 K, x1 = 0.1997 | 872.48 ± 0.35 | 27.6 ± 0.3
303.15 K, x1 = 0.2992 | 873.22 ± 0.35 | 26.92 ± 0.29
303.15 K, x1 = 0.3998 | 873.93 ± 0.35 | 26.3 ± 0.29
303.15 K, x1 = 0.4993 | 874.57 ± 0.35 | 25.74 ± 0.28
303.15 K, x1 = 0.6002 | 875.17 ± 0.35 | 25.2 ± 0.28
303.15 K, x1 = 0.6994 | 875.7 ± 0.35 | 24.7 ± 0.28
303.15 K, x1 = 0.8002 | 876.19 ± 0.35 | 24.24 ± 0.27
303.15 K, x1 = 0.902 | 876.63 ± 0.35 | 23.81 ± 0.27
303.15 K, x1 = 1 | 876.99 ± 0.35 | 23.46 ± 0.27
308.15 K, x1 = 0.0999 | 867.33 ± 0.36 | 27.8 ± 0.3
308.15 K, x1 = 0.1999 | 867.99 ± 0.36 | 27.05 ± 0.29
308.15 K, x1 = 0.3001 | 868.59 ± 0.36 | 26.35 ± 0.29
308.15 K, x1 = 0.3989 | 869.15 ± 0.36 | 25.73 ± 0.28
308.15 K, x1 = 0.5002 | 869.66 ± 0.36 | 25.14 ± 0.28
308.15 K, x1 = 0.6008 | 870.11 ± 0.36 | 24.6 ± 0.27
308.15 K, x1 = 0.6998 | 870.5 ± 0.36 | 24.1 ± 0.27
308.15 K, x1 = 0.8007 | 870.84 ± 0.36 | 23.63 ± 0.27
308.15 K, x1 = 0.9 | 871.12 ± 0.36 | 23.2 ± 0.26
308.15 K, x1 = 1 | 871.35 ± 0.36 | 22.79 ± 0.26
